The subject of one test is MPanc-96 cells. Nature of the test: MPanc-96 cell apoptosis by flow cytometry, 72 hours. Type of test: cell-based, human. Conditions: 100 and 1000 nM, with or without gemcitabine 10 μM. The procedure: FIG. 11 compares the effects of cromolyn and C5 alone and in combination with gemcitabine on MPanc-96 cell apoptosis. MPanc-96 cells were treated with cromolyn or C5 (100 and 1000 nM) with (+) or without (−) gemcitabine (10 μM). Apoptosis was analyzed after 72 hours by flow cytometry.

The test system of a further test is BxPC-3 cells. The test is described as follows: BxPC-3 cell viability, 72 hours. Type of test: cell-based. The procedure: BxPC-3 cells were plated at 1.0×10^3 cells/well and treated with 0 μM, 1 μM, 10 μM, and 100 μM of cromolyn or C5 alone or in combination with gemcitabine 1 μM and cell viability was analyzed after 72 hours. Two-tailed two-sample (unpaired) Student's t-tests were used to determine P values. […] BxPC-3 cells were plated at 1.0×10^3 cells/well and treated with either 100 μM of cromolyn or 1 μM C5 alone or in combination with gemcitabine (1 μM) and cell viability was analyzed after 72 hours.

In the next test the target is S100B with RAGE (Homo sapiens, UniProt P04271). The test is described as follows: S100B binding with RAGE ELISA (sRAGE coated plate). From the text:
After removing un-bound S100B by washing with detergent, bound S100B and RAGE complex was quantified by adding HRP labeled antibody against S100B.

Another test addresses T1, S100P binding with RAGE (Homo sapiens, UniProt P25815).
T1 construct: full-length human S100P cDNA (NM_005980) was cloned into the pTrcHis2 vector; His tag
T1 sequence (P25815 1-95): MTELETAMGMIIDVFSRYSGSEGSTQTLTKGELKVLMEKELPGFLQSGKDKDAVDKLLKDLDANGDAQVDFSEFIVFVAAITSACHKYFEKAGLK
The test is described as follows: S100P binding with RAGE ELISA (sRAGE coated plate). The procedure: After removing un-bound S100P by washing with detergent, the bound S100P and RAGE complex was quantified by adding HRP labeled antibody against S100P. *, P=0.04 C5 μM versus cromolyn 5 μM. Two-tailed two-sample (unpaired) Student's t-tests were used to determine P values.

In test [1] the test system is NFκB activity in MPanc-96 cells. The test is described as follows: S100P stimulated NFκB luciferase reporter, MPanc-96. Type of test: cell-based, human. The procedure:
MPanc-96 pancreatic cancer cell lines stably expressing an NFκB luciferase reporter were examined for the effects of S100P, cromolyn and C5. Cells were plated at 5.0×10^3 cells/well, treated for 5 hours with 100 nM of S100P, with or without cromolyn and C5 (1 μM), and activity of a luciferase gene driven by the NFkB promoter was analyzed. P=0.05 C5 versus cromolyn. Two-tailed two-sample (unpaired) Student's t-tests were used to determine P values.
Background: A reporter such as luciferase makes a cellular process visible.

Test [2] deals with Panc-1 cells. Nature of the test: Panc-1 cell growth (MTS). Type of test: cell-based. The procedure: Panc-1 pancreatic adenocarcinoma cells (1.0×10^3 cells/well) were cultured in the presence or absence of S100P (100 nM) and with or without cromolyn (100 μM), and cell proliferation was analyzed at 24, 48, and 72 hours. Means and 95% confidence intervals of three independent experiments performed in triplicate are shown. *, P=0.001, S100P alone versus S100P+cromolyn.
Panc-1 cells were plated at 1.0×10^3 cells/well and treated with platelet-derived growth factor (10 ng/mL) with or without cromolyn (100 μM), and cell proliferation was analyzed after 48 hours. Means and 95% confidence intervals of three independent experiments performed in triplicate are shown. *, P=0.004 PDGF and P=0.022 cromolyn+PDGF versus control.
Growth of Panc-1 and BxPC3 pancreatic adenocarcinoma cells was analyzed using MTS reagent (Promega, Madison, Wis.) according to the manufacturer's directions. Purified S100P (100 nM final concentration) with or without cromolyn (100 μM final concentration) was added to Panc-1 cells. Only cromolyn (0-100 μM) was added to BxPC-3 cells, which express endogenous S100P. For both cell models, 1.0×10^3 cells/well were plated in 96-well culture dishes. Cells were treated with S100P, PDGF, or cromolyn, or a combination, followed immediately by treatment with either S100P or PDGF. MTS (20 μL per well) was added to cells at various times, and the mixture was incubated for 1 hour at 37° C. Samples were then read at 490 nm (as O.D. units) on a uQuant-Microplate Spectrophotometer (Bio-Tek Services Inc., Richmond, Va.). The assay was performed three times in triplicate.

Test [3] deals with Panc-1 cells. The test is described as follows: Matrigel invasion assay, Panc-1. Type of test: cell-based. The conditions noted are these: S100P 100 nM alone, 24 hours. The procedure: FIGS. 2A-2D show the effect of cromolyn on pancreatic cancer cell invasion. Panc-1 and BxPC-3 cells were plated in Bio-coat matrigel and control chambers and cultured in serum-free culture media. After 24 hours non-invaded cells in the upper chamber were removed, and cells that invaded onto the lower surface of the membrane were counted from five adjacent fields. […] Data are expressed as the percent invasion through the matrigel matrix and membrane relative to migration through the control membrane. Means and 95% confidence intervals from three independent experiments performed in triplicate are shown. Two-tailed two-sample (unpaired) Student's t-tests were used to determine P values.
Panc-1 and BxPC-3 cells were seeded in BIOCOAT matrigel invasion chambers and in control chambers without matrigel (Becton-Dickinson, Bedford, Mass.) according to the manufacturer's protocol. Panc-1 cells were seeded with S100P (100 nM) with or without cromolyn (100 μM), and BxPC-3 cells were seeded with or without cromolyn (1-100 μM). Briefly, 2.0×10^5 cells in 300 μL top solution (serum-free media) were added to each chamber and allowed to invade matrigel for 24 hours at 37° C. in a 5% CO2 atmosphere. The non-invading cells on the upper surface of membrane were removed from the chambers with a cotton swab, and the invading cells on the lower surface of the membrane were fixed and stained using a Diff-Quick stain kit (Becton Dickinson, Bedford, Mass.). After two washes with water, the chambers were allowed to air dry. The numbers of invading cells in five adjacent microscope fields per membrane were counted at 20× magnification to obtain the average number of cells per field. Data are expressed as the percent invasion through the matrigel matrix and membrane relative to the migration through the control membrane. The assays were performed three times.

Test [4] relates to NFκB promoter activity in Panc-1 cells. The test is described as follows: Luciferase assay for NFκB activity, Panc-1. Type of test: cell-based. The conditions noted are these: for NFκB promoter activity in Panc-1 cells, mean: 5 hours, 0 nM mean=3358. The procedure: FIGS. 3A, 3B, and 3C show the effect of cromolyn on S100P stimulated NFκB promoter activity in pancreatic cancer cells in vitro and in vivo. Panc-1 and BxPC-3 pancreatic cancer cell lines stably expressing an NFκB luciferase reporter were examined for the effects of S100P and cromolyn. […] Means and 95% confidence intervals are shown for three independent experiments performed in triplicate. *, P=0.022, †, P<0.001, and ‡, P<0.001 versus control; #, P=0.005 versus 100 nM S100P alone. […] Means and 95% confidence intervals are shown for three independent experiments performed in triplicate. *, P=0.003, †, P<0.001 versus control. […] After 1 week, tumor growth was assessed and NFκB activity was analyzed using an IVIS system (Xenogen Corp., Alameda, Calif.) after injecting mice with D-luciferin (150 mg per kg body weight) (0 time point). The mice were treated with cromolyn (5 mg per kg body weight by intraperitoneal injection), and NFκB luciferase activity was analyzed again at 24 and 48 hours. *, P=0.005 versus control. Means and 95% confidence intervals are shown for two independent experiments (n=4 mice per group). Two-tailed two-sample (unpaired for in vitro and paired for in vivo studies) Student's t-tests were used to determine P values.
To study pancreatic cancer cell NFκB activity, a lentivirus NFκB luciferase reporter gene construct was developed. The NFκB luciferase reporter gene was excised and isolated from the pNF-κB-Luc Vector (Clonetec, Mountain View, Calif.) and cloned into the lentiviral vector FG9 (Gift from Dr. Xiao-Feng Qin, Dept. of Immunology, M.D. Anderson Cancer Center replacing the CMV/LTR and UBiC promoters, to form Lenti-NFκB-Luc. Lentiviral NFκB vector were co-transfected with packaging constructs pRSVREV, pMDLg/pRRE, and the VSV-G expression plasmid pHCMVG, and lentivirus was produced in 293T cells by the calcium transfection method, as previously described in Qin, et al., Inhibiting HIV-1 infection in human T cells by lentiviral-mediated delivery of small interfering RNA against CCR5; Proc. Natl. Acad. Sci. U.S.A. 2003 Jan. 7; 100(1):183-8. […] Functional validation of NFκB reporter activity was conducted in vitro using TNF-α (20 ng/mL, Sigma, St. Louis, Mo.) as a positive control.
BxPC-3 and Panc-1 cells stably expressing a Lenti-NFkB-luc reporter construct were treated with S100P, cromolyn, or the combination for 5 hours. D-luciferin (150 μg/mL) was added to the cells, and luciferase activity was measured using an IVIS bioluminescence system (Xenogen Co. Alameda, Calif.). Each experiment was conducted three times in triplicate.

S100B with RAGE, sequence (P04271 whole entry, species assumed): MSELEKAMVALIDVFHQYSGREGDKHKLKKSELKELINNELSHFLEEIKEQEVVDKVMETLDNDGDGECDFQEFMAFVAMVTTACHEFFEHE

On to `O=C([O-])c1cc(=O)c2c(OCCCCCOc3cccc4oc(C(=O)[O-])cc(=O)c34)cccc2o1.[Na+].[Na+]` [C5, disodium 1,5-bis(2-carboxychromon-5-yloxy) pentane], for which the MPanc-96 cell viability result in the test on MPanc-96 cells is given as “inhibit MPanc-96 cell viability”. Further, the BxPC-3 cell viability entry with BxPC-3 cells (1-100 μM, alone or with gemcitabine 1 μM) is recorded as “inhibit BxPC-3 cell viability”. Also, the “inhibition of BxPC-3 cell viability relative to cromolyn” value in the test on BxPC-3 cells (alone at 10 or 100 μM, with gemcitabine at 1-100 μM) was “more potent and more efficacious than cromolyn”. The “concentration giving the same level of cell reduction in combination with gemcitabine” value in the test with BxPC-3 cells (with gemcitabine 1 μM) amounted to 1 µM. Also, the “interaction of S100B with RAGE” value at S100B with RAGE was “inhibit the interaction of S100B with RAGE”. Moreover, at S100P binding with RAGE, the “concentration achieving the same level of S100P inhibition” value is recorded as 100 nM, the “interaction between S100P with RAGE” value is listed as “blocked” and the “potency relative to cromolyn in blocking S100P-RAGE interaction” value is reported as “more potent than cromolyn”. In addition, the “NFκB activity in pancreatic cancer cells in vitro” value in test [1] (S100P 100 nM, compound 1 μM, 5 hours) was “inhibit NFκB activity”. For the same molecule, the “reduction of S100P induced NFκB activity relative to cromolyn” value in test [1] (same dose (1 μM)) is recorded as “much better than cromolyn”.
PDGF: the “Panc-1 cell growth, difference control versus PDGF” value in the test with Panc-1 cells [2] (PDGF 10 ng/mL, 48 hours) was found to be 0.2 MTS units. Also, in the test on Panc-1 cells [2] (PDGF 10 ng/mL, 48 hours, control mean=0.5), the “Panc-1 cell growth, mean” value was found to be 0.7 MTS units.

B1: S100P: purified His-tagged full-length human S100P protein, added exogenously as RAGE ligand (protein, UniProt P25815 1-95, looked up)
chain: T1 sequence (P25815 1-95)
modifications: full-length His tag
notes: purified His-tagged full-length human S100P protein, added exogenously as RAGE ligand
Turning to B1, the “Panc-1 cells invaded, mean” value with Panc-1 cells [3] was 58.0%. In the test with Panc-1 cells [2] (S100P 100 nM alone), the “Panc-1 cell proliferation, mean” value was determined as 0.93 MTS units. Besides, the “NFκB promoter activity in Panc-1 cells, difference versus 0 nM” value in test [4] (S100P 1 nM) was 3544 photons/sec; in test [4] (S100P 10 nM) it was 5400 photons/sec; in test [4] (S100P 100 nM), 11100 photons/sec. Moreover, the “NFκB promoter activity in Panc-1 cells, mean” value in test [4] (S100P 1 nM) is recorded as 6902 photons/sec; in test [4] (S100P 10 nM), 8758 photons/sec; in test [4] (S100P 100 nM), 14460 photons/sec.

(Values after patent publication US8252807B2, “Methods of inhibiting the interaction between S100 and the receptor for advanced glycation end-products” (Board of Regents, The University of Texas System, priority 2007, dated 2012).)
